According to US20130317034A1, “COMBINATION THERAPY FOR TREATING DIABETES” (Japan Tobacco Inc., priority 2010, published 2013):

How the values were obtained:
[1] = Food consumption, body weight gain and body weight in rats fed a high fat diet; type: in vivo; conditions: Mean ± S.E. (n = 8)
Description: Forty-four eight week old male rats (Charles River Laboratories Japan, Inc.) were used for the experiment. Body weights and food weight were measured six days before and on the day before the dosing of the compound of formula (I). Body weight gain and food consumption were calculated for this period. Animals were fasted for 24 hours the day before dosing with the compound of formula (I). Using the body weights on the day of the dosing, body weight gain and food consumption as indicators, 32 rats were selected from those closest to the mean values. The rats were assigned to four groups (control, compound of formula (I) only, DPP-IV inhibitor only, and combination of compound of formula (I) and DPP-IV inhibitor) with eight animals in each group. One-way analysis of variance was performed using SAS Preclinical Package Version 5.0 and SAS System Version 8.2 (SAS Institute Japan Co., Ltd.) to verify that no significant intergroup differences were present after group allocation.
(§1) After the rats were fasted for 24 hours, either the compound of formula (I) (30 mg/kg) or vehicle (0.5% MC) was dosed orally. The rats were immediately fed with a high-fat diet for six hours and fasted overnight. Glucose tolerance tests (GTTs) were performed 30 minutes after dosing either sitagliptin or vehicle (0.5% MC). Dosing for each group is described in Tables 1 and 2 below.
Food consumption was calculated according to the following formula: food consumption (g)=food weight before feeding (g)−food weight after feeding (g). Body weight gain was calculated according the following formula: body weight gain (g)=body weight after feeding (g)-body weight before feeding (g). There were no significant differences between the groups in food consumption and body weight gain for six hours after dosing, and in body weight at the start of GTT (Table 3).

rats fed a high fat diet [2] = experiment: Glucose tolerance test (GTT): plasma insulin levels; type: in vivo
Description: (§2) This example studied the combined effects of the compound of formula (I) and sitagliptin, i.e., a DPP-IV inhibitor, on plasma GLP-1 levels and glucose tolerance as evaluated in rats fed a high fat diet.
as §1
(§3) At the start of the GTT, blood was collected to measure plasma GLP-1. The plasma glucose and insulin concentrations were measured before and after loading with the glucose solution. For the preparation of the glucose solution, glucose was diluted in saline at a concentration of 0.4 g/mL.
(§4) For the GTT, the rats were fasted overnight after six hours feeding. On the following day, 600-700 μL of blood were collected from the tail vein into tubes containing a DPP-IV inhibitor, aprotinin, and EDTA. Thereafter, a glucose solution at a dose of 1 g/2.5 mL/kg was loaded intraperitoneally. At 10, 30, 60, and 120 minutes after loading the glucose solution, 200-300 μL of blood were collected from the tail vein into tubes containing heparin. The blood was centrifuged at 10,000×g and 4° C. for five minutes to obtain the plasma.

rats fed a high fat diet [3] = experiment: Glucose tolerance test (GTT): plasma glucose levels; type: in vivo
Description: as §2, §1, §3, §4

plasma GLP-1 = experiment: Plasma GLP-1 level at the start of the GTT (GLP-1 (Active) ELISA); type: in vivo, rats
Description: as §2, §1, §3
For the GTT, the rats were fasted overnight after six hours feeding. On the following day, 600-700 μL of blood were collected from the tail vein into tubes containing a DPP-IV inhibitor, aprotinin, and EDTA. Thereafter, a glucose solution at a dose of 1 g/2.5 mL/kg was loaded intraperitoneally. […]
After 200 μL of plasma sampled before the glucose loading were added with […] of ethanol, the solution was thoroughly mixed. […] The GLP-1 concentration was measured by the ELISA method using a GLP-1 (Active) ELISA kit.

[4] = six hours high-fat feeding after dosing, compound of formula (I) 30 mg/kg PO
[5] = 0 min after glucose loading (1 g/kg ip), compound of formula (I) 30 mg/kg PO, sitagliptin 10 mg/kg PO

For `N[C@@H](CC(=O)N1CCn2c(nnc2C(F)(F)F)C1)Cc1cc(F)c(F)cc1F` [sitagliptin], the “Body Weight” value ([1]; before GTT) was 352.7 ± 6.9 g, the “Body Weight Gain” value [1, 4] was 15.5 ± 1.2 g and the “Food Consumption” value [1, 4] was 15.2 ± 1.3 g. The “Plasma Insulin Level” value (rats fed a high fat diet [2]; [5]) was 2.350 ± 0.439 ng/mL, the “Plasma Insulin Level” value (rats fed a high fat diet [2]; 10 min after glucose loading) was 4.968 ± 0.562 ng/mL and the “Plasma Insulin Level” value (rats fed a high fat diet [2]; 30 min after glucose loading) was 4.595 ± 0.675 ng/mL. For the same compound, the “Plasma Insulin Level” value (rats fed a high fat diet [2]; 60 min after glucose loading) was 3.253 ± 0.749 ng/mL, the “Plasma Insulin Level” value (rats fed a high fat diet [2]; 120 min after glucose loading) was 3.046 ± 0.435 ng/mL and the “AUC of Plasma Insulin Level” value (rats fed a high fat diet [2]; during the GTT, 0-120 min) was 438.898 ± 72.779 ng·min/mL. The “Plasma insulin levels during the GTT, in words” value (rats fed a high fat diet [2]; versus control group) was “higher”, the “Plasma Glucose Level” value (rats fed a high fat diet [3]; [5]) was 149 ± 6 mg/dL and the “Plasma Glucose Level” value (rats fed a high fat diet [3]; 10 min after glucose loading) was 264 ± 16 mg/dL. For the same compound, the “Plasma Glucose Level” value (rats fed a high fat diet [3]; 30 min after glucose loading) was 255 ± 12 mg/dL, the “Plasma Glucose Level” value (rats fed a high fat diet [3]; 60 min after glucose loading) was 185 ± 8 mg/dL and the “Plasma Glucose Level” value (rats fed a high fat diet [3]; 120 min after glucose loading) was 157 ± 5 mg/dL. The “Plasma glucose levels in the GTT, in words” value (rats fed a high fat diet [3]; at 60 minutes after glucose loading, versus control group) was “significantly decreased”, the “AUC of Plasma Glucose Level” value (rats fed a high fat diet [3]; during the GTT, 0-120 min) was 24095 ± 981 mg·min/dL and the “AUC for the glucose levels during the GTT, in words” value (rats fed a high fat diet [3]; versus control group) was “lower than that for the control group, although there were no statistically significant differences”. For the same compound, the “Plasma GLP-1 Level” value (plasma GLP-1; at the start of the GTT, compound of formula (I) 30 mg/kg PO day before, sitagliptin 10 mg/kg PO 30 min before GTT, Mean ± S.E. (n = 8)) was 1.800 ± 0.270 pmol/L and the “Plasma GLP-1 levels prior to glucose loading, in words” value (plasma GLP-1; versus control group) was “significantly higher”.
